{"source": "patent US20140349297A1", "about": "“FLUORESCENT DYES BASED ON ACRIDINE AND ACRIDINIUM DERIVATIVES” (Almac Sciences (Scotland) Limited, priority 2011, published 2014)", "key": {"recombinant Lck kinase": {"molecular_target": "T1, recombinant Lck kinase (Homo sapiens, UniProt P06239)", "T1 construct": "purchased EnzoLifeSciences", "T1 sequence (P06239 whole entry, species assumed)": "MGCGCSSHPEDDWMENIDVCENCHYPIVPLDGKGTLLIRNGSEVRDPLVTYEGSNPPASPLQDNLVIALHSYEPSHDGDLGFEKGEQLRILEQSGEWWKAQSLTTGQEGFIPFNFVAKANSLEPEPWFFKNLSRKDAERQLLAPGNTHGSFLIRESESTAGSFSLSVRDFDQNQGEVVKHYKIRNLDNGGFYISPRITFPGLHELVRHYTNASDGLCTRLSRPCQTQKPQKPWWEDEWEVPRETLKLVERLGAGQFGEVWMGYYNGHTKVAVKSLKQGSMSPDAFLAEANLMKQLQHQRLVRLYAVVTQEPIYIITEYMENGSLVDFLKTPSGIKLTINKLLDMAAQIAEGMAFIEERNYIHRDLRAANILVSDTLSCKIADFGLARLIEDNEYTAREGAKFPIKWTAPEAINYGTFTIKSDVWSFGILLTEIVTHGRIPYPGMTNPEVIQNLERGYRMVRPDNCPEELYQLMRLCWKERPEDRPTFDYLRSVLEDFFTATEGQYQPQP", "format": "biochemical", "settings": "Lck 3.6 mU/well, 1 μM LLD-EPEGIYGVLF substrate; read-out: ATP Km", "method": "Enzyme: Lck (p56Ick) (EnzoLifeSciences, 18 U/m1), 3.6 mU/well\nEnzyme (3.6 mU in 5 μl buffer A) was then added to each well. […] The average lifetime values were converted to pmol phosphopeptide from a standard curve and plots of initial rates of reaction dependent on ATP concentration were used to determine the ATP Km value by non-linear regression fitting using GraphPad Prism (see FIG. 10)."}, "[1]": {"test": "Fluorescence lifetimes of acridine derivatives by TCSPC (Table 1)", "format": "physicochemical", "settings": "excitation 405 nm", "method": "Fluorescence lifetimes were determined by time-correlated single photon counting (TCSPC) acquisition using an Edinburgh Instruments Nanotaurus fluorescence lifetime platereader, using excitation laser 405 nm and either a 438 nm band pass, 450 nm band pass or 473 nm long pass emission filter for detection."}, "[2]": {"test": "Fluorescence analysis of 9,10-dimethylacridin-10-ium methyl sulfate (lifetime decay)", "format": "physicochemical", "method": "Measurements were performed in 10 mM PBS pH 7.4, excitation wavelength 350 nm and emission wavelength 490 nm for steady state, and excitation wavelength 405 nm and emission wavelength 473 nm long pass filter for fluorescence lifetime;\nSteady state measurements were performed on an Edinburgh Instruments FLS920 steady state fluorimeter, with excitation wavelength of 350 nm and emission wavelength of 490 nm. Fluorescence lifetimes were determined by time-correlated single photon counting (TCSPC) acquisition using an Edinburgh Instruments Nanotaurus fluorescence lifetime platereader, using excitation laser 405 nm and a 473 nm long pass emission filter for detection.\nThe fluorescence excitation and emission spectra were measured at 1 μM 9,10-dimethylacridin-10-ium methyl sulfate concentration in phosphate buffered saline (PBS) solution pH 7.4. The fluorescence excitation and emission spectra, and fluorescence lifetime decay curve are shown in FIG. 1(a) and FIG. 1(b) respectively. 9,10-Dimethylacridin-10-ium methyl sulfate has an advantageously long fluorescence lifetime of circa 25-30 ns. In addition, the magnitude of the fluorescence lifetime was maintained across the three buffer systems tested (see Table 1, entry 6)."}, "[3]": {"test": "pH stability of fluorescence lifetime", "format": "physicochemical", "settings": "1 μM in 20 mM sodium phosphate buffer", "method": "1 μM solutions of 9,10-dimethylacridin-10-ium methyl sulfate in 20 mM sodium phosphate buffer were prepared using 0.2 M monobasic sodium phosphate and 0.2 M dibasic sodium phosphate buffer mixtures, 0.1 M HCl solution was used to adust the pH to <6 and 0.1 M NaOH solution was used to adjust the pH to >8;\nAn important criteria of fluorescence dyes suitable for use in biochemical and cell-based assays is the advantageousness of the fluorescence lifetime being independent of pH in the physiological range 5 to 9."}, "[4]": {"test": "Fluorescence emission profile as a function of pH", "format": "physicochemical", "settings": "excitation 405 nm", "method": "The fluorescence emission profile was measured as a function of pH upon excitation at 405 nm (FIG. 3)."}, "[5]": {"settings": "reported, Tanaka et al. 2001; cited from earlier work"}}, "note": "“And” between values parts separate entries of the source, which are not always exact repeats. Equal entries are not always repeated. Structures can show the parent of a compound that is named as a salt.", "data": [{"compound": "Nc1ncnc2c1ncn2[C@@H]1O[C@H](COP(=O)(O)OP(=O)(O)OP(=O)(O)O)[C@@H](O)[C@H]1O", "note": "[ATP]", "values": [{"measurement": "Km", "setting": "recombinant Lck kinase", "result": 36.4, "unit": "µM"}]}, {"compound": "Nc1c2ccccc2nc2ccccc12", "note": "[Entry 1]", "values": [{"measurement": "Fluorescence Lifetime", "setting": "[1]; 1 μM in 50 mM AcOH solution", "result": 15.6, "unit": "ns"}, {"measurement": "Fluorescence Lifetime", "setting": "[1]; 1 μM in PBS", "result": 15.6, "unit": "ns"}, {"measurement": "Fluorescence Lifetime", "setting": "[1]; 1 μM in water", "result": 15.7, "unit": "ns"}]}, {"compound": "C[n+]1c2ccccc2c(N)c2ccccc21.[Cl-]", "note": "[Entry 2]", "values": [{"measurement": "Fluorescence Lifetime", "setting": "[1]; 1 μM in 50 mM AcOH solution", "result": 16.4, "unit": "ns"}, {"measurement": "Fluorescence Lifetime", "setting": "[1]; 1 μM in PBS", "result": 16.3, "unit": "ns"}, {"measurement": "Fluorescence Lifetime", "setting": "[1]; 1 μM in water", "result": 16.4, "unit": "ns"}]}, {"compound": "c1ccc2nc3ccccc3cc2c1", "note": "[Entry 3]", "values": [{"measurement": "Fluorescence Lifetime", "setting": "[1]; 1 μM in 50 mM AcOH solution", "result": 29.4, "unit": "ns"}, {"measurement": "Fluorescence Lifetime", "setting": "[1]; 1 μM in PBS", "result": 18.8, "unit": "ns"}, {"measurement": "Fluorescence Lifetime", "setting": "[1]; 1 μM in water", "result": 10.5, "unit": "ns"}]}, {"compound": "Cc1c2ccccc2nc2ccccc12", "note": "[Entry 4]", "values": [{"measurement": "Fluorescence Lifetime", "setting": "[1]; 1 μM in 50 mM AcOH solution", "result": 29.1, "unit": "ns"}, {"measurement": "Fluorescence Lifetime", "setting": "[1]; 1 μM in PBS", "result": 11.7, "unit": "ns"}, {"measurement": "Fluorescence Lifetime", "setting": "[1]; 1 μM in water", "result": 29.1, "unit": "ns"}]}, {"compound": "C[n+]1c2ccccc2cc2ccccc21", "note": "[Entry 5]", "values": [{"measurement": "Fluorescence Lifetime", "setting": "[1]; 1 μM in 50 mM AcOH solution", "result": 32.1, "unit": "ns"}, {"measurement": "Fluorescence Lifetime", "setting": "[1]; 1 μM in PBS", "result": 31.9, "unit": "ns"}, {"measurement": "Fluorescence Lifetime", "setting": "[1]; 1 μM in water", "result": 14.1, "unit": "ns"}]}, {"compound": "Cc1c2ccccc2[n+](C)c2ccccc12", "note": "[Entry 6, 9,10-dimethylacridin-10-ium methyl sulfate]", "values": [{"measurement": "Fluorescence Lifetime", "setting": "[1]; 1 μM in 50 mM AcOH solution", "result": 29.8, "unit": "ns"}, {"measurement": "Fluorescence Lifetime", "setting": "[1]; 1 μM in PBS", "result": 26.2, "unit": "ns"}, {"measurement": "Fluorescence Lifetime", "setting": "[1]; 1 μM in water", "result": 30.0, "unit": "ns"}, {"measurement": "fluorescence lifetime (decay curve, FIG. 1b)", "setting": "[2]; 10 mM PBS pH 7.4, excitation 405 nm, 473 nm long pass emission filter", "result": 26.2, "unit": "ns"}, {"measurement": "Fluorescence Lifetime", "setting": "[2]; circa, maintained across the three buffer systems tested", "result": "25-30 ns"}, {"measurement": "fluorescence lifetime as a function of pH", "setting": "[3]", "result": "stable across the pH range 3 to 10"}, {"measurement": "emission maximum", "setting": "[4]; solutions >pH 10", "result": "425 nm and 450 nm"}, {"measurement": "emission maximum", "setting": "[4]; solutions at pH 3 to 10", "result": "460 nm and 490 nm"}, {"measurement": "pKa of methyl protons at the 9-position", "setting": "[5]", "result": "akin to acetic acid"}]}]}
